# Like-named read-outs stand apart in the source and are kept apart here.
# Molecular target: DCN1 (DCUND1) protein PONY domain (Homo sapiens (Human), UniProt Q96GG9)
# Assay: TR-FRET assay (binding to DCN-1, displacement of FAM-labeled probe)
# Description: (§1) The TR-FRET assay was designed following the Scott et al. protocol (Scott et al., Nat Chem Biol. 2017 August; 13(8): 850-857. doi:10.1038/nchembio.2386). The recombinant form of the DCN1 (DCUND1) protein PONY domain was produced using an E. coli expression system at Viva Biotech (China). The DCN1 protein was biotinylated (EZ sulfo-NHS-LC-biotin; Thermofisher) for labeling with streptavidin terbium (Tb) cryptate in the reaction. The probe was changed to a non-covalent DCN1 inhibitor labeled with carboxyfluorescein (FAM; Zhou et al., Nat Commun. 2017; 8: 1150. doi: 10.1038/s41467-017-01243-7). Buffer conditions were modified to enhance protein stability by exchanging Tween20 for TritonX and increasing NaCl to 200 mM. The compounds were screened against 5 nM DCN1 and 20 nM FAM-probe or 0.31 nM DCN1 and 900 nM total probe (100 nM FAM-labeled plus 800 nM unlabeled). The TR-FRET ratio between Tb-DCN1 and the FAM-labeled probe was measured in a 384-well opti-plate (Perkin Elmer) using a plate reader (BMG) at 1, 5, and 24 hrs after treatment with compound (final DMSO concentration of 0.1%). The ratio was normalized to the high (DCN1 and FAM-probe) and low (DCN1 and no probe) controls for a readout of % activity (=100*(x−low)/(high−low).
# A TR-FRET assay was performed to evaluate the ability of the compounds to bind the DCN-1 protein.
# as §1, with “850-857. Doi: 10.1038/nchembio.2386).” for “850-857. doi:10.1038/nchembio.2386).”, “the DCNI” for “the DCN1”, “1150. Doi:” for “1150. doi:”, “0.1%).” for “0.1%). The ratio was normalized to the high (DCN1 and FAM-probe) and low (DCN1 and no probe) controls for a readout of % activity (=100*(x−low)/(high−low).”
# [1] = 24 hr after treatment with compound, read-out: TR FRET IC50 24 hr
# [2] = TR FRET IC50 1 hr (nM), 1 hr after treatment with compound
# [3] = read-out: TR FRET IC50 1 hr, 1 hr after treatment with compound
# DCN1 (DCUND1) protein PONY domain, sequence (Q96GG9 60-248): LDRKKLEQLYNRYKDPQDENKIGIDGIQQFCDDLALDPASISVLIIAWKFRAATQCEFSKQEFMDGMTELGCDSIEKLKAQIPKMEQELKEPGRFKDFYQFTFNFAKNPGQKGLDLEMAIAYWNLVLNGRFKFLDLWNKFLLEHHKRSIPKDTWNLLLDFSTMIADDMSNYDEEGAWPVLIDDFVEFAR
Structure (SMILES),IC50 [1] [nM],IC50 [2] [nM],IC50 [3] [nM]
CCN1C(=O)[C@H](NC(=O)c2cccc(C(F)(F)F)c2)[C@@H](c2cccc(NC(=O)C34CC3C4)c2)c2c(C)nn(-c3ccccc3)c21 (mixture of isomers) [Compound I-80],1000 to 3000,1000 to 3000,–
CCN1C(=O)[C@@H](NC(=O)c2cccc(C(F)(F)F)c2)[C@H](c2cccc(CNC(=O)C(F)Cl)c2)c2cnn(-c3ccccc3)c21 (mixture of isomers) [Compound I-100],1000 to 3000,1000 to 3000,–
CCN1C(=O)[C@@H](NC(=O)c2cccc(C(F)(F)F)c2)[C@H](c2ccccc2CNC(=O)C(F)Cl)c2cnn(-c3ccccc3)c21 (mixture of isomers) [Compound I-105],1000 to 3000,1000 to 3000,–
CCN1C(=O)[C@@H](NC(=O)c2cccc(C(F)(F)F)c2)[C@H](c2cccc(CNC(=O)C(C)Cl)c2)c2cnn(-c3ccccc3)c21 (mixture of isomers) [Compound I-112],1000 to 3000,1000 to 3000,–
CCN1C(=O)[C@@H](NC(=O)c2cccc(C(F)(F)F)c2)[C@H](c2ccccc2CNC(=O)C(C)Cl)c2cnn(-c3ccccc3)c21 (mixture of isomers) [Compound I-114],1000 to 3000,1000 to 3000,–
C=C(CN1C[C@@H]2C[C@H]1CO2)C(=O)NCc1cccc([C@@H]2c3cnn(-c4ccccc4)c3N(CC)C(=O)[C@H]2NC(=O)c2nccc(C(F)(F)F)n2)c1 (mixture of isomers) [Compound I-160],≤ 200,–,≤ 200
CCN1C(=O)[C@@H](NC(=O)c2nccc(C(F)(F)F)n2)[C@H](c2cccc(C(=O)N3CCC[C@@H]3C#N)c2)c2cnn(-c3ccccc3)c21 (mixture of isomers) [Compound I-250],1000 to 3000,1000 to 3000,–
C=C(CN1CCOCC1)C(=O)N[C@H](C)c1cccc([C@@H]2c3cnn(-c4ccccc4)c3N(CC)C(=O)[C@H]2NC(=O)c2nccc(C(F)(F)F)n2)c1 (mixture of isomers) [Compound I-281],200 to 1000,1000 to 3000,–
C=C(CN1CCN(C2COC2)CC1)C(=O)N[C@H](C)c1cccc([C@@H]2c3cnn(-c4ccccc4)c3N(CC)C(=O)[C@H]2NC(=O)c2nccc(C(F)(F)F)n2)c1 (mixture of isomers) [Compound I-366],1000 to 3000,1000 to 3000,–
"CCN1C(=O)[C@@H](NC(=O)c2nccc(C(F)(F)F)n2)[C@H](c2cccc(C(=O)N3CC(F)(F)C[C@H]3C#N)c2)c2cnn(-c3ccccc3)c21 (mixture of isomers) [Compound I-379, N-(rac-(4R,5S)-4-(3-((S)-2-cyano-4,4-difluoropyrrolidine-1-carbonyl)phenyl)-7-ethyl-6-oxo-1-phenyl-4,5,6,7-tetrahydro-1H-pyrazolo[3,4-b]pyridin-5-yl)-4-(trifluoromethyl)pyrimidine-2-carboxamide]",1000 to 3000,1000 to 3000,–
C=C(CN1CCN(C2COC2)CC1)C(=O)N[C@@H](C)c1cccc([C@@H]2c3cnn(-c4ccccc4)c3N(CC)C(=O)[C@H]2NC(=O)c2nccc(C(F)(F)F)n2)c1 (mixture of isomers) [Compound I-380],1000 to 3000,1000 to 3000,–
C=C(CN(C)C1COC1)C(=O)Nc1cccc([C@H]2c3c(C)nn(-c4ccccc4)c3N(CC)C(=O)[C@@H]2NC(=O)c2cccc(C(F)(F)F)c2)c1 (racemic) [Compound I-3],≤ 200,–,≤ 200
CCN1C(=O)[C@H](NC(=O)c2cccc(C(F)(F)F)c2)[C@@H](c2ccccc2N2CC=CC2=O)c2cnn(-c3ccccc3)c21 (racemic) [Compound I-21],> 3000,> 3000,–
"CCN1C(=O)[C@H](NC(=O)c2cccc(C(F)(F)F)c2)[C@@H](c2ccccc2NC(C)=O)c2cnn(-c3ccccc3)c21 (racemic) [Compound I-26, rac-N-((4R,5S)-4-(2-acetamidophenyl)-7-ethyl-6-oxo-1-phenyl-4,5,6,7-tetrahydro-1H-pyrazolo[3,4-b]pyridin-5-yl)-3-(trifluoromethyl)benzamide]",> 3000,> 3000,–
CCN1C(=O)[C@@H](NC(=O)c2cccc(C(F)(F)F)c2)[C@H](c2cccc(CNC#N)c2)c2cnn(-c3ccccc3)c21 (racemic) [Compound I-29],1000 to 3000,1000 to 3000,–
CCN1C(=O)[C@@H](NC(=O)c2cccc(C(F)(F)F)c2)[C@H](c2ccccc2CN(C)C#N)c2c(C)nn(-c3ccccc3)c21 (racemic) [Compound I-30],1000 to 3000,1000 to 3000,–
CCN1C(=O)[C@@H](NC(=O)c2cccc(C(F)(F)F)c2)[C@H](c2ccccc2CNC#N)c2cnn(-c3ccccc3)c21 (racemic) [Compound I-31],1000 to 3000,1000 to 3000,–
CCN1C(=O)[C@H](NC(=O)c2cccc(C(F)(F)F)c2)[C@@H](c2cccc(NC(=O)C#CCN3CCOCC3)c2)c2c(C)nn(-c3ccccc3)c21 (racemic) [Compound I-35],1000 to 3000,1000 to 3000,–
CCN1C(=O)[C@@H](NC(=O)c2cccc(C(F)(F)F)c2)[C@H](c2cncc(NC(=O)C3=CCC3)c2)c2cnn(-c3ccccc3)c21 (racemic) [Compound I-36],1000 to 3000,–,1000 to 3000
CCN1C(=O)[C@H](NC(=O)c2cccc(C(F)(F)F)c2)[C@@H](c2cccc(N(C)C(=O)/C=C/CN(C)C)c2)c2cnn(-c3ccccc3)c21 (racemic) [Compound I-39],1000 to 3000,1000 to 3000,–
CCN1C(=O)[C@@H](NC(=O)c2cccc(C(F)(F)F)c2)[C@H](c2cccc(CN(C)C#N)c2)c2c(C)nn(-c3ccccc3)c21 (racemic) [Compound I-40],1000 to 3000,1000 to 3000,–
C=C(CC(=O)OC)C(=O)Nc1cccc([C@@H]2c3c(C)nn(-c4ccccc4)c3N(CC)C(=O)[C@H]2NC(=O)c2cccc(C(F)(F)F)c2)c1 (racemic) [Compound I-41],1000 to 3000,1000 to 3000,–
"CCN1C(=O)[C@H](NC(=O)c2cccc(C(F)(F)F)c2)[C@@H](c2ccccc2NC(=O)C23CC2C3)c2cnn(-c3ccccc3)c21 (mixture of isomers) [Compound I-45, {N}-[2-[˜{rac}-(4˜{S},5˜{R})-7-ethyl-6-oxo-1-phenyl-5-[[3-(trifluoromethyl)benzoyl]amino]-4,5-dihydropyrazolo[3,4-b]pyridin-4-yl]phenyl]bicyclo[1.1.0]butane-1-carboxamide]",1000 to 3000,1000 to 3000,–
CCN1C(=O)[C@@H](NC(=O)c2cccc(C(F)(F)F)c2)[C@H](c2ccccc2CN(C)C#N)c2cnn(-c3ccccc3)c21 (racemic) [Compound I-49],1000 to 3000,1000 to 3000,–
CCN1C(=O)[C@@H](NC(=O)c2cccc(C(F)(F)F)c2)[C@H](c2cccc(CNC(=O)/C=C/CN(C)C)c2)c2cnn(-c3ccccc3)c21 (racemic) [Compound I-53],1000 to 3000,1000 to 3000,–
"C=C(CN1CCOCC1)C(=O)Nc1cccc([C@@H]2c3c(C)nn(-c4ccccc4)c3N(CCO)C(=O)[C@@H]2NC(=O)c2cccc(C(F)(F)F)c2)c1 (racemic) [Compound I-55, rac-N-((4R,5R)-7-(2-hydroxyethyl)-3-methyl-4-(3-(2-(morpholinomethyl)acrylamido)phenyl)-6-oxo-1-phenyl-4,5,6,7-tetrahydro-1H-pyrazolo[3,4-b]pyridin-5-yl)-3-(trifluoromethyl)benzamide]",1000 to 3000,1000 to 3000,–
CCN1C(=O)[C@@H](NC(=O)c2cccc(C(F)(F)F)c2)[C@H](c2cccc(NC(=O)/C=C/CN(C)C)c2F)c2cnn(-c3ccccc3)c21 (racemic) [Compound I-56],≤ 200,200 to 1000,–
CCN1C(=O)[C@@H](NC(=O)c2cccc(C(F)(F)F)c2)[C@H](c2cccc(NC(=O)C3=CCCN(C)C3)c2)c2cnn(-c3ccccc3)c21 (racemic) [Compound I-58],≤ 200,1000 to 3000,–
CCN1C(=O)[C@@H](NC(=O)c2cccc(C(F)(F)F)c2)[C@H](c2ccccc2CNC(=O)/C=C/C(=O)OC)c2cnn(-c3ccccc3)c21 (racemic) [Compound I-67],1000 to 3000,1000 to 3000,–
C=C(CO)C(=O)Nc1cccc([C@@H]2c3c(C)nn(-c4ccccc4)c3N(CC)C(=O)[C@H]2NC(=O)c2cccc(C(F)(F)F)c2)c1 (racemic) [Compound I-71],200 to 1000,1000 to 3000,–

# From patent US12435087B2, “Modulators of DCN-1 and methods of use thereof” (Cellarity, Inc., priority 2023, dated 2025)
